Laboratory results published in patent publication US20210292741A1, “COMBINATION THERAPEUTICS USING TUMOR TREATING FIELDS (TTFIELDS)” (THE BOARD OF REGENTS OF THE UNIVERSITY OF TEXAS SYSTEM, priority 2020, published 2021).

System: H1299, A549, H157, and H4006 cells
Assay: clonogenic survival assay, TTFields combined with E2F and CDK 4/6 inhibitors
Assay type: cell-based, Human
Conditions: single inhibitor plus TTFields, Highest Single Agent approach
Description: FIGS. 6A-6B provide the results of exemplary clonogenic survival assays in four lung cancer cells lines—H1299, A549, H157, and H4006 cells—under various conditions testing combinations of TTFields with agents that dysregulate E2F signaling or CDK4/6 signaling at 24, 48, and 72 hours. […] Cell survival after increased exposure to TTFields alone, or in combination with a E2F inhibitor, a CDK 4/6 inhibitor or to a combination of E2F inhibitor and CDK 4/6 inhibitor is shown.
Human NSCLC cell lines (H157, H4006, A549, and H1299) were purchased from American Tissue Culture Collection. All these cell lines were grown in RPMI medium supplemented with 10% (v/v) fetal bovine serum (Atlanta Biologicals, Flowery Branch, Ga., USA) and penicillin/streptavidin (final concentration 50 μg/ml; Sigma-Aldrich, St. Louis, Mo., U29SA). All cells were grown at 37° C. in a humidified incubator constantly supplied with 5% CO2.
The inovitro system (NovoCure Ltd, Haifa, Israel) was used to generate TTFields that use two pairs of electrodes printed perpendicularly on the outer walls of a Petri dish composed of high dielectric constant ceramic (lead magnesium niobate-lead titanite (PMN-PT)). […] The temperature was measured by 2 thermistors (Omega Engineering, Stamford, Conn., USA) attached to the ceramic walls. […]

## CCOc1ccc(C(Nc2ccccn2)c2ccc3ccc(C)nc3c2O)cc1C (stereo not shown) [HLM006474]
  cell killing in combination with TTFields as compared to TTFields alone: enhanced cell killing synergistically
